Source: PMC4718634, “Murine GPRC6A Mediates Cellular Responses to L-Amino Acids, but Not Osteocalcin Variants” (PLoS ONE, 2016)
Entries after “also recorded” stand apart in the source; their conditions may differ. One block for each compound: values may come before it. Ends that are not written are not given here.

Columns and labels:
[1] = tested on: un-induced FlpIn-TREx-HEK293-mGPRC6A cells; experiment: Label-free cell impedance, un-induced FlpIn-TREx-HEK293-mGPRC6A cells; assay type: cell-based; conditions: Fig 4
Description: (§1) 2.5 x 10^7 FlpIn-TREx-HEK293-mGPRC6A cells were seeded in a T175 flask and incubated overnight at 37°C in 5% CO2. Cells were then transfected with 35 μg of plasmid DNA (GαqG66D) with Lipofectamine LTX according to manufacturer's instructions, then incubated for 24h at 37°C in 5% CO2. Prior to the experiment, a background reading for each E-plate 96 (Bio-Rad, CA, USA) was measured after addition of 100 μl DMEM + 10% FBS per well. Cells were recovered using Versene and seeded at a 10^5 cells/well density in 200 μl DMEM + 10% FBS (containing 1 μg/ml tetracycline where indicated). Cells were washed 2 x 2 h in HBSS buffer (pH 7.2) containing 20 mM HEPES, 1 mM CaCl2 and 0.1% BSA (w/v) in a total volume of 180 μl. Test compounds (20 μl at 10x final concentration) were added to the plate and cell impedance was monitored for 3 h. Cell index was normalised to the buffer response (minus the baseline response at zero time point).

mGPRC6A (mouse GPRC6A) = biological target: T1, mGPRC6A (mouse GPRC6A) (Mus musculus, UniProt Q8K4Z6); experiment: Label-free cell impedance (xCELLigence), tetracycline-induced FlpIn-TREx-HEK293-mGPRC6A cells; assay type: cell-based; conditions: tetracycline-induced; xCELLigence; Fig 4
T1 sequence (Q8K4Z6 21-928): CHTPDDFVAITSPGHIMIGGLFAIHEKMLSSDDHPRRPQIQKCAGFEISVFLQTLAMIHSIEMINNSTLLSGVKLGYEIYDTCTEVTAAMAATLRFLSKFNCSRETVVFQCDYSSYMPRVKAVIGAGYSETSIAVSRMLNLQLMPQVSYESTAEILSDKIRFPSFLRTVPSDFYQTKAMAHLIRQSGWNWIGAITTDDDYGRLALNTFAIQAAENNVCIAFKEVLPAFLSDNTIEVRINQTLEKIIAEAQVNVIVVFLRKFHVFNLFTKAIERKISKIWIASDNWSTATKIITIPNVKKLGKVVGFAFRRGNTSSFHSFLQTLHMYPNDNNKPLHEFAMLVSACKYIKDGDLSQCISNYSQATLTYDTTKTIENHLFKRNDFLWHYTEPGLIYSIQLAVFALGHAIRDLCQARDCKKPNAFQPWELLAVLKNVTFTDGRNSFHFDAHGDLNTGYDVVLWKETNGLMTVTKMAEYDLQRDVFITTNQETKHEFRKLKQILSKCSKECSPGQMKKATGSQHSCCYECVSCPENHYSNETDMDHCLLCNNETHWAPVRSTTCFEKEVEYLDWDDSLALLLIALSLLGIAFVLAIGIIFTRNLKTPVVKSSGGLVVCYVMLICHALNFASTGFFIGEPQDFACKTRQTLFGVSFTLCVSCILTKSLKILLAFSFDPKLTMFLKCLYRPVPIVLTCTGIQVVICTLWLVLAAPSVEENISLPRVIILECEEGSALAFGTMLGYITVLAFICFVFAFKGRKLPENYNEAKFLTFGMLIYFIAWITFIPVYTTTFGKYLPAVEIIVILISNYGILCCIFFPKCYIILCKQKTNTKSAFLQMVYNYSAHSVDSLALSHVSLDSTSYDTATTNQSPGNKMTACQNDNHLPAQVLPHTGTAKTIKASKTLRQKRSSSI
Description: as §1
(§2) Concentration-response data were analysed using a three or four parameter logistic function (Motulsky & Christopoulos, 2004) to generate estimates of agonist potency (LogEC50). Data for all HEK293 assays represent the mean ± SEM of at least three independent experiments (except cell impedance, n = 2). For GLP-1 release, the data represent mean ± SEM of three to five independent experiments (except for OCN, wash; n = 2). For insulin release assays, data represent the mean ± SEM of three independent experiments (except for islet studies; n = 2). Insulin release data were normalised to the response to vehicle in either low or high [glucose]. Statistical analysis for GLP-1 release data were performed by one-way ANOVA, followed by Sidak’s multiple comparisons test (treating wash / no wash datasets separately). Statistical analyses for insulin release data were performed by two-way ANOVA (with [glucose] and drug treatment as group variables), followed by Sidak’s multiple comparisons test. Where only high [glucose] groups were evaluated, statistical analysis was by one-way ANOVA followed by Sidak’s multiple comparisons test.

hC6A = conditions: ref [9] (supplement list); cited from earlier work
Source text: (§3) Supplement pone.0146846.s004.docx, table 1 | column: Functional assay

22RV1 / PC-3 = conditions: endogenous; ref [9] (supplement list); cited from earlier work
Source text: as §3

mouse pancreatic islets = experiment: Insulin release from mouse pancreatic islets; assay type: cell-based; conditions: n = 2; P < 0.001, P < 0.0001; S3 Fig B
Description: Islets were collagenase-isolated from mice (10 x C57Bl/6; 12–13 weeks; Charles River) and incubated overnight in RPMI (with 10% FBS (v/v), 10 mM HEPES, 100 U/ml penicillin, 100 μg/ml streptomycin, sodium pyruvate and 10 mM glucose) at 37°C in 5% CO2. Islets were seeded into a 96-well plate (4 / well) in Kreb’s buffer containing 2.8 mM glucose and washed twice with the same buffer. 200 μl test drugs were added in Kreb’s buffer with the required concentration of glucose and incubated at 37°C in 5% CO2 for 90 min. The plate was centrifuged for 10 s at 200 g, supernatant recovered and insulin levels detected as described above. This protocol was approved by the IDRS (Institut de Recherches Servier) Institutional Animal Care and Use Committee.
as §2

MIN6 cells = experiment: Insulin release from MIN6 cells; assay type: cell-based, murine; conditions: 16.7 mM glucose; P < 0.0001, two-way ANOVA; Fig 6B
Description: (§4) MIN6 or βTC-6 cells were seeded in 24-well plates at 170,000 cells per well in DMEM (containing 4.5g/L glucose, 10 mM HEPES, 100 U/ml penicillin, 100 μg/ml streptomycin and 15% de-complemented FBS) and incubated at 37°C / 5% CO2 for 72 h. Cells were then washed with 500 μl PBS and incubated in 500 μl deprivation media (DMEM with zero glucose, 10 mM HEPES, 1 mM Na-pyruvate, 100 U/ml penicillin, 100 μg/ml streptomycin, 15% de-complemented FBS) for 2 h at 37°C. Media was aspirated and after washing with 500 μl PBS, cells were treated with 250 μl of Krebs buffer (250 mM NaCl, 5.9 mM KCl, 1.2 mM MgCl2, 1.3 mM CaCl2, 25 mM HEPES, 0.1% BSA (w/v), and 2 mM or 16.7 mM glucose; pH 7.4) in the presence or absence of test compound. After incubation for 2 h at 37°C, the assay was terminated by placing the plates on ice and supernatants were transferred to a 96-well plate in preparation for insulin ELISA (Alpco) following manufacturer’s instructions. The cell monolayer was washed twice with 500 μl of PBS and then lysed using 250 μl of 1 N NaOH prior to protein measurement by the method of Bradford (1976).
as §2

β-TC6 cells = experiment: Insulin release from β-TC6 cells; assay type: cell-based, murine; conditions: P < 0.001, P < 0.0001, two-way ANOVA, S3 Fig A
Description: as §4, §2

INS-1(832) cells = experiment: Label-free cell impedance, INS-1(832) cells; assay type: cell-based, rat; conditions: Gprc6a-negative, EBSS, 2.8 mM glucose, Fig 7, two-way ANOVA, *P < 0.05, **P < 0.01 vs Vehicle
Description: For INS-1 cells, 100 μl of medium (RPMI 1640 no glucose, 10% FBS, 55 μM β-mercaptoethanol, 1 mM sodium pyruvate, 10 mM HEPES, 100 U/ml penicillin, 100 μg/ml streptomycin, 11.1 mM glucose) was added per well to an E-plate 96 and a background reading taken. Cells were seeded at 2 x 10^4 / well and the plates incubated in the instrument for 48 h. On the day of the experiment, media was changed to EBSS buffer (180 μl; 2.8 mM glucose, 1.8 mM CaCl2, 5.3 mM KCl, 0.8 mM MgSO4, 117 mM NaCl, 26 mM NaHCO3, 1 mM NaH2PO4). After 2 h incubation, cells were stimulated with 20 μl test compound (10 x final) prepared in the same buffer. Data capture and analysis were as for HEK293 cells.

Compound: Nc1ncnc2c1ncn2[C@@H]1O[C@H](COP(=O)(O)OP(=O)(O)OP(=O)(O)O)[C@@H](O)[C@H]1O [ATP]
cell impedance (cell index) response [1]: concentration-dependent increase in cell index; also recorded: increases cellular impedance | cell impedance (cell index) response (mGPRC6A (mouse GPRC6A)): concentration-dependent increase in cell index; also recorded: increases cellular impedance

Compound: [Cl-].[Cl-].[Zn+2] [ZnCl2]
pERK1/2 response (hC6A): pERK1/2 – response to Ca^2+, ZnCl2, OCN, Arginine, Testosterone-BSA | pERK1/2 response (22RV1 / PC-3): pERK1/2 – response to Ca^2+, ZnCl2, OCN, Arginine, Testosterone-BSA Proliferation – response to Ca^2+, OCN PSA, Runx2 expression – response to OCN, Arg, R1881 Chemotaxis (22RV1) – response to Ca^2+, OCN

Compound: OC[C@H]1OC(O)[C@H](O)[C@@H](O)[C@@H]1O (stereo partly drawn) [glucose]
insulin secretion, glucose effect (mouse pancreatic islets): released insulin in a glucose-sensitive manner; also recorded: significantly enhanced insulin secretion | insulin secretion, glucose effect (MIN6 cells): significantly promoted insulin secretion; also recorded: significantly enhanced insulin secretion | insulin secretion, glucose effect (β-TC6 cells): released insulin in a glucose-sensitive manner | insulin secretion, glucose effect (β-TC6 cells; listed as Glucose): significantly enhanced insulin secretion

cell impedance (cell index) response (mGPRC6A (mouse GPRC6A)): did not change cell impedance
Compound: Bovine OCN: Purified bovine osteocalcin from bone (Meridian Life Science), carboxylated / under-carboxylated (YLDHWLGAPAPYPDPLEPKREVCELNPDCDELADHIGFQEAYRRFYGPV; ends and bridges not checked; also: γ-carboxyglutamic acid residues, partially carboxylated)
change in cell impedance (cell index) (INS-1(832) cells): significant, concentration-dependent activity | change in cell impedance (cell index) (INS-1(832) cells; listed as purified bovine OCN): significant changes in cell impedance; also recorded: Concentration-dependent increases in cell index | cell impedance (cell index) response [1]: did not change cell impedance
